Measurements published in patent publication US20210070748A1, “INHIBITORS OF BRUTONS TYROSINE KINASE” (Pharmacyclics LLC, priority 2015, published 2021).

Key:
Type in all cases: biochemical
BTK-WT = target: T1, BTK-WT (Homo sapiens, UniProt Q06187); test: Btk in vitro inhibitory activity (one of Method A TR-FRET, Method B electrophoretic mobility shift, Method C radiometric filter binding); conditions: D-compounds panel data; read-out: IC50 BTK-WT
T1 construct: purified from insect cells as a full-length construct containing an N-terminal 6X-His tag; His6 (N); made in house; host or cells: insect cells (baculovirus Sf21 in Method B)

JAK3 = target: T2, JAK3 (Homo sapiens, UniProt P52333); test: Inhibition of a panel of kinases, in vitro HotSpot kinase assay: JAK3; conditions: D-compounds panel data; 1 μM ATP; read-out: IC50 JAK3
T2 sequence (P52333 1-1124): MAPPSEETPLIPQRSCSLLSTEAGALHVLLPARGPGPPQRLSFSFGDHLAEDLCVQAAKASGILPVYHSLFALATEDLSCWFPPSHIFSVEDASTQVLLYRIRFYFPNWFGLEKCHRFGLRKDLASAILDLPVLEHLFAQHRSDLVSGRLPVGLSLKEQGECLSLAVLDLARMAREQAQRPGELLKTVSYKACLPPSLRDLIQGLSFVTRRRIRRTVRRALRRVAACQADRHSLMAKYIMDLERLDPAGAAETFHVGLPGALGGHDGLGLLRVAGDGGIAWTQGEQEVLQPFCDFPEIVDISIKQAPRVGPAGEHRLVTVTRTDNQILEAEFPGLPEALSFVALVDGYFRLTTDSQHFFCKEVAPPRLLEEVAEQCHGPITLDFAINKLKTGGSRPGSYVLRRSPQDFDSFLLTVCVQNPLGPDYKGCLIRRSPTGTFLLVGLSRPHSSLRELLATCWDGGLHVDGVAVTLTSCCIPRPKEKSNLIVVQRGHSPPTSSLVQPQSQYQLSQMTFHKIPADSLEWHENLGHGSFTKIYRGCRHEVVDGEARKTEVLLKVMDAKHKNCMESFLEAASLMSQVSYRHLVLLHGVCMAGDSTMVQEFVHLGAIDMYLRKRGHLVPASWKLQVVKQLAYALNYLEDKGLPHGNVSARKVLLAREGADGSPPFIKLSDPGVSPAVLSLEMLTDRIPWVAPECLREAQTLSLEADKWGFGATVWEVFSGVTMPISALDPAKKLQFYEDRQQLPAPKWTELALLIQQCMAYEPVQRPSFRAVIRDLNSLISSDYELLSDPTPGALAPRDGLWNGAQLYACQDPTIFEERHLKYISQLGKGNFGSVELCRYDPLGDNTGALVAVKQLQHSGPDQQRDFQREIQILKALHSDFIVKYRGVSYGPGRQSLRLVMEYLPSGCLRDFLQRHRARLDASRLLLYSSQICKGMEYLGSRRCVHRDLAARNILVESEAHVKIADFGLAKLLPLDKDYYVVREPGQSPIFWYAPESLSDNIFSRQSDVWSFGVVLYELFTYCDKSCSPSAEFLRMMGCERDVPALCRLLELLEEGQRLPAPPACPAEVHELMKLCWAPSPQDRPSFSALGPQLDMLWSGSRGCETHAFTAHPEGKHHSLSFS

LCK = LCK (Homo sapiens, UniProt P06239); test: Inhibition of a panel of kinases, in vitro HotSpot kinase assay: LCK; conditions: D-compounds panel data; 1 μM ATP; read-out: IC50 LCK
SRC = SRC (Homo sapiens, UniProt P12931); test: Inhibition of a panel of kinases, in vitro HotSpot kinase assay: SRC; conditions: D-compounds panel data; 1 μM ATP
Description: The degree of inhibition of a panel of kinases is determined using the in vitro HotSpot kinase assay (purified enzymes, ^33P-ATP, an appropriate substrate and 1 μM ATP).

T1 sequence (Q06187 whole entry): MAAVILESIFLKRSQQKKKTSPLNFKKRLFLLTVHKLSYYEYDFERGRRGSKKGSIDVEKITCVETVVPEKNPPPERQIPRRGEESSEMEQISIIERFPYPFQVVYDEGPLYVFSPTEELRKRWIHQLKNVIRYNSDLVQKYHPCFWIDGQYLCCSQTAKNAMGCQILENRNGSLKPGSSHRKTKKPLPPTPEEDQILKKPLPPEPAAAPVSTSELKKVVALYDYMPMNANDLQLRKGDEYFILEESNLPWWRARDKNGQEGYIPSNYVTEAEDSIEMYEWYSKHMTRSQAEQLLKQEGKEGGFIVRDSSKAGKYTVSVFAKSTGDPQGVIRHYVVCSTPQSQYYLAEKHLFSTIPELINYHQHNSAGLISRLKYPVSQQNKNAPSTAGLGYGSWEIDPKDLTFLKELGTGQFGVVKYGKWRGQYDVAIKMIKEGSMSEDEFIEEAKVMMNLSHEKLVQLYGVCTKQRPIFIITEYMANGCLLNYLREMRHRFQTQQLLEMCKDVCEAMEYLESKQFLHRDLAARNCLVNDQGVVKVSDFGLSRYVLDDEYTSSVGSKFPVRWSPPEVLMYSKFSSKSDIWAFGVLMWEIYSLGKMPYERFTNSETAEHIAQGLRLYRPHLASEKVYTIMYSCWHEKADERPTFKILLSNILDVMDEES
Chain of SRC (P12931 whole entry): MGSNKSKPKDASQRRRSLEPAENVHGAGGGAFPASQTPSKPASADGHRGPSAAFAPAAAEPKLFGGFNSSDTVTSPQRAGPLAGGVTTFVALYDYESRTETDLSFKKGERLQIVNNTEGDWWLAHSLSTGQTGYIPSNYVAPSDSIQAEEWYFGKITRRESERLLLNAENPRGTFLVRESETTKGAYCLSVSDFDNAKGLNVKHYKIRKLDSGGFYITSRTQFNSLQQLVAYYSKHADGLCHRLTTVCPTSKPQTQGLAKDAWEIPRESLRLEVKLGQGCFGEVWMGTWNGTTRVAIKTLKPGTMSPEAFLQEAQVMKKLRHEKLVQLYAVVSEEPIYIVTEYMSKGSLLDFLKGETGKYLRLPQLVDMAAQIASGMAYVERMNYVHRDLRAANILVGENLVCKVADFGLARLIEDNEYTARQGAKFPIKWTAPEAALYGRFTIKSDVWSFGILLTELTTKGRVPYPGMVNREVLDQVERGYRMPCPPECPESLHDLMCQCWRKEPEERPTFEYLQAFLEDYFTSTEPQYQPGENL
Chain of LCK (P06239 whole entry): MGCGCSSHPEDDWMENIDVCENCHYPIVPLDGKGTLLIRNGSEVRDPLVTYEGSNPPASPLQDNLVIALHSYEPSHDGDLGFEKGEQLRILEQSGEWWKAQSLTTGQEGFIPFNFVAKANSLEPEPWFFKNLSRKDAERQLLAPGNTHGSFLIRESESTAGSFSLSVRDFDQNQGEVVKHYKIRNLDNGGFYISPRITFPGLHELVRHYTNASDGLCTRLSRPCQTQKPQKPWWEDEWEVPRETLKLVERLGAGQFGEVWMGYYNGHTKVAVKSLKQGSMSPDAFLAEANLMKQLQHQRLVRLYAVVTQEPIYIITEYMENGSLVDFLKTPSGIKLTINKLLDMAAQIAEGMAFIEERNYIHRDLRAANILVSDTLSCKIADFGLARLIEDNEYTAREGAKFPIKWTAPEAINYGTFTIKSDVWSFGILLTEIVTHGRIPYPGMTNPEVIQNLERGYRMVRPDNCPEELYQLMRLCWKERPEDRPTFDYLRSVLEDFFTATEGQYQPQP

SMILES | IC50 (BTK-WT) [nM] | IC50 (JAK3) [nM] | IC50 (LCK) [nM] | IC50 (SRC) [nM]
C[C@@H]1[C@H](NC(=O)c2ccc(C(C)(C)C)cc2)CCCN1c1cnc(C(N)=O)c(Nc2ccc(OC3CCN(C)CC3)cc2)n1 [Example D-291, 5-[(2R,3R)-3-(4-tert-butylbenzamido)-2-methylpiperidin-1-yl]-3-({4-[(1-methylpiperidin-4-yl)oxy]phenyl}amino)pyrazine-2-carboxamide] | ≤ 10 | 1000 to 10000 | 10 to 100 | 10 to 100
C[C@@H]1[C@H](NC(=O)c2ccc(C(C)(C)C#N)cc2)CCCN1c1cnc(C(N)=O)c(Nc2ccc(OC3CCN(C)CC3)cc2)n1 [Example D-292, 5-[(2R,3R)-3-[4-(1-cyano-1-methylethyl)benzamido]-2-methylpiperidin-1-yl]-3-({4-[(1-methylpiperidin-4-yl)oxy]phenyl}amino)pyrazine-2-carboxamide] | ≤ 10 | 1000 to 10000 | 10 to 100 | 10 to 100
C[C@@H]1[C@H](NC(=O)c2ccc(C3CC3)cc2)CCCN1c1cnc(C(N)=O)c(Nc2cnn(C3CCN(CC(F)(F)F)CC3)c2)n1 [Example D-293, 5-[(2R,3R)-3-(4-cyclopropylbenzamido)-2-methylpiperidin-1-yl]-3-({1-[1-(2,2,2-trifluoroethyl)piperidin-4-yl]-1H-pyrazol-4-yl}amino)pyrazine-2-carboxamide] | ≤ 10 | 1000 to 10000 | > 10000 | 10 to 100
C[C@@H]1[C@H](NC(=O)c2ccc(C3CC3)nc2)CCCN1c1cnc(C(N)=O)c(Nc2ccc(OC3CCN(C)CC3)cc2)n1 [Example D-294, 5-[(2R,3R)-3-(6-cyclopropylpyridine-3-amido)-2-methylpiperidin-1-yl]-3-({4-[(1-methylpiperidin-4-yl)oxy]phenyl}amino)pyrazine-2-carboxamide] | ≤ 10 | 100 to 1000 | 10 to 100 | 10 to 100
CC(=O)N1CCN(c2ccc(Nc3nc(N4CCC[C@@H](NC(=O)c5ccc(C6CC6)cc5)[C@H]4C)cnc3C(N)=O)cc2)CC1 [Example D-295, 3-{[4-(4-acetylpiperazin-1-yl)phenyl]amino}-5-[(2R,3R)-3-(4-cyclopropylbenzamido)-2-methylpiperidin-1-yl]pyrazine-2-carboxamide] | ≤ 10 | 100 to 1000 | 10 to 100 | 10 to 100
CC(=O)N1CCC(c2ccc(Nc3nc(N4CCC[C@@H](NC(=O)c5ccc(C6CC6)cc5)[C@H]4C)cnc3C(N)=O)cc2)CC1 [Example D-296, 3-{[4-(1-acetylpiperidin-4-yl)phenyl]amino}-5-[(2R,3R)-3-(4-cyclopropylbenzamido)-2-methylpiperidin-1-yl]pyrazine-2-carboxamide] | ≤ 10 | 1000 to 10000 | 100 to 1000 | 10 to 100
C[C@@H]1[C@H](NC(=O)c2ccc(C3CC3)cn2)CCCN1c1cnc(C(N)=O)c(Nc2ccc(OC3CCN(C)CC3)cc2)n1 [Example D-297, 5-[(2R,3R)-3-(5-cyclopropylpyridine-2-amido)-2-methylpiperidin-1-yl]-3-({4-[(1-methylpiperidin-4-yl)oxy]phenyl}amino)pyrazine-2-carboxamide] | ≤ 10 | 100 to 1000 | 10 to 100 | 10 to 100
C[C@@H]1[C@H](NC(=O)c2ccc(C(C)(C)O)cc2)CCCN1c1nnc(C(N)=O)c(Nc2cnn(C)c2)n1 [Example D-298, 3-[(2R,3R)-3-[4-(2-hydroxypropan-2-yl)benzamido]-2-methylpiperidin-1-yl]-5-[(1-methyl-1H-pyrazol-4-yl)amino]-1,2,4-triazine-6-carboxamide] | ≤ 10 | 100 to 1000 | 10 to 100 | 10 to 100
CCOCCOc1ccc(Nc2nc(N3CCC[C@@H](NC(=O)c4ccc(C5CC5)cc4)[C@H]3C)cnc2C(N)=O)cc1 [Example D-299, 5-[(2R,3R)-3-(4-cyclopropylbenzamido)-2-methylpiperidin-1-yl]-3-{[4-(2-ethoxyethoxy)phenyl]amino}pyrazine-2-carboxamide] | 10 to 100 | > 10000 | > 10000 | 1000 to 10000
C[C@@H]1[C@H](NC(=O)c2ccc(C3CC3)cc2)CCCN1c1cnc(C(N)=O)c(NCC2=CCN(C)CC2)n1 [Example D-300, 5-[(2R,3R)-3-(4-cyclopropylbenzamido)-2-methylpiperidin-1-yl]-3-{[(1-methyl-1,2,3,6-tetrahydropyridin-4-yl)methyl]amino}pyrazine-2-carboxamide] | > 10000 | > 10000 | > 10000 | > 10000
C[C@@H]1[C@H](NC(=O)c2ccc(C3CC3)cc2)CCCN1c1cnc(C(N)=O)c(Nc2ccc(C3CCN(C)CC3)cc2)n1 [Example D-301, 5-[(2R,3R)-3-(4-cyclopropylbenzamido)-2-methylpiperidin-1-yl]-3-{[4-(1-methylpiperidin-4-yl)phenyl]amino}pyrazine-2-carboxamide] | ≤ 10 | 1000 to 10000 | 100 to 1000 | 100 to 1000
C[C@@H]1[C@H](NC(=O)c2ccc(C(C)(C)O)cc2F)CCCN1c1cnc(C(N)=O)c(Nc2cnn(C)c2)n1 [Example D-302, 5-[(2R,3R)-3-[2-fluoro-4-(2-hydroxypropan-2-yl)benzamido]-2-methylpiperidin-1-yl]-3-[(1-methyl-1H-pyrazol-4-yl)amino]pyrazine-2-carboxamide] | ≤ 10 | 100 to 1000 | 10 to 100 | 10 to 100
C[C@@H]1[C@H](NC(=O)c2ccc(C3CC3)cc2)CCCN1c1cnc(C(N)=O)c(Nc2ccc3c(c2)CCOC3)n1 [Example D-303, 5-[(2R,3R)-3-(4-cyclopropylbenzamido)-2-methylpiperidin-1-yl]-3-[(3,4-dihydro-1H-2-benzopyran-6-yl)amino]pyrazine-2-carboxamide] | 10 to 100 | > 10000 | > 10000 | 1000 to 10000
CCN(C)C(=O)N[C@@H]1CCCN(c2cnc(C(N)=O)c(Nc3cnn(C)c3)n2)[C@@H]1C [Example D-304, 5-[(2R,3R)-3-{[ethyl(methyl)carbamoyl]amino}-2-methylpiperidin-1-yl]-3-[(1-methyl-1H-pyrazol-4-yl)amino]pyrazine-2-carboxamide] | ≤ 10 | 1000 to 10000 | 100 to 1000 | 100 to 1000
C[C@@H]1[C@H](NC(=O)c2ccc(C3CC3)nc2)CCCN1c1cnc(C(N)=O)c(Nc2ccc(N3CCC(F)(F)CC3)cc2)n1 [Example D-305, 5-[(2R,3R)-3-(6-cyclopropylpyridine-3-amido)-2-methylpiperidin-1-yl]-3-{[4-(4,4-difluoropiperidin-1-yl)phenyl]amino}pyrazine-2-carboxamide] | ≤ 10 | > 10000 | 100 to 1000 | 10 to 100
C[C@@H]1[C@H](NC(=O)N(C)C)CCCN1c1cnc(C(N)=O)c(Nc2ccc(N3CCC(F)(F)CC3)cc2)n1 [Example D-306, 3-{[4-(4,4-difluoropiperidin-1-yl)phenyl]amino}-5-[(2R,3R)-3-[(dimethylcarbamoyl)amino]-2-methylpiperidin-1-yl]pyrazine-2-carboxamide] | ≤ 10 | 1000 to 10000 | 100 to 1000 | 100 to 1000
C[C@@H]1[C@H](NC(=O)c2ccc(C3CC3)cc2)CCCN1c1cnc(C(N)=O)c(Nc2cnn(C3CCC(F)(F)CC3)c2)n1 [Example D-307, 5-[(2R,3R)-3-(4-cyclopropylbenzamido)-2-methylpiperidin-1-yl]-3-{[1-(4,4-difluorocyclohexyl)-1H-pyrazol-4-yl]amino}pyrazine-2-carboxamide] | ≤ 10 | > 10000 | 100 to 1000 | 100 to 1000
